Key:
[1] = system: Rabbits (New Zealand Albino breed); settings: rabbit, in vivo
Experimental: The test substance 114 was tested in Animal skin irritation test. Rabbits (New Zealand Albino breed) were used for the test. The test was performed according to ČSN EN ISO 10993 (Březen 2014): Biologické hodnoceni zdravotnických prostředků—část 10: Zkoušky dráždivosti a senzibilizace kůže, článek 6.3 Zkouška dráždivosti na zviřatech (Biological evaluation of medical devices—Part 10: Tests for irritation and delayed-type hypersensitivity). A dose 0.5 g of the test substance was applied to the skin of the back on each side of each rabbit. […] At first the one rabbit (test animal. No. 16) was used. Two other rabbits (rabbit No. 17 and No. 18) were used in confirmatory test. At the end of the contact time (4 hours) the dressings were removed and animals were examined for signs of erythema and oedema, and the response was evaluated at 1, 24, 48 and 72 hours afterpatches removal.

[2] = system: BJ skin fibroblasts; test: Intracellular ROS production, DCFH-DA probe; assay type: cell-based, human; settings: 24 h incubation at 100, 10, 1 and 0.1 μM
Experimental: ROS production in living cells was determined by using the fluorescent probe DCFH-DA. In brief, compound 114 at 100, 10, 1 and 0.1 μM concentrations was incubated for 24 h with BJ skin fibroblasts. Thereafter, cells were washed with phosphate buffer and DCFH-DA was added. The fluorescence was read every 1 min over 20 min by using microplate reader Infinite M200 (TECAN, Switzerland). ROS production was calculated as the increase in fluorescence over 20 min.

[3] = in vivo; settings: both sexes, Wistar, rat, sc
Experimental: The aim of the study was to investigate acute toxic effects of the test substance, after a single subcutaneous administration to Wistar rats. The testing was performed according to the methods: ČSN EN ISO 10993-11: Biologické hodnoceni zdravotnických prostředků—část 11: Zkoušky na systémovou toxicitu and OECD Test Guideline No. 420 Acute Oral Toxicity—Fixed Dose Proceduře. Adopted 17 Dec. 2001. The test substance 114 was administered in a single dose as solution in vehicle (olive oil), given subcutaneously to male and female Wistar rats. The dosing was performed sequentially. The pre-test (the sighting study) was performed with 1 female and 1 male for each dose level. The dose level of 30 mg/kg was used as the starting dose. No death of animal was recorded at the starting dose, therefore the following dose level was used (100 mg/kg). […] The presence of subcutaneously administered test substance at the dose level of 30 and 100 mg/kg was visible to second day after application. […] According to the study results the Maximum Tolerated Dose (subcutaneous) of the test substance for male and female rats is >100 mg/kg.

[4] = system: human epidermal model EpiDerm™; test: In vitro skin irritation test, EpiDerm; assay type: cell-based
Experimental: Test substance was assayed for the in vitro skin irritation in human epidermal model EpiDerm™. The test was performed according to the Method B.46. In vitro skin irritation: Reconstructed human epidermis model test and Protocol for: In Vitro EpiDerm™ Skin Irritation Test For use with MatTek Corporation's Reconstructed Human Epidermal Model EPI-200-SIT (see par. 1.4, (1), (3)). Two types of extract were prepared by means of polar (water) as well as non-polar extractant (olive oil) according to directions given in ČSN EN ISO 10 993-12 (2012). After pre-incubation of tissues, 30 μl of an extract was placed directly atop to the tissue so it covered all tissue surfaces. Length of exposition was 60 minutes. Three tissues were used for the extract and for each control. The procedure was performed separately for each extract. After removal of extracts of the test substance from tissues, tissues were post incubated for 42 hours due to leave of damage reparation, followed by three hours incubation with MTT and two hours extraction period with shaking. Optical density (OD570) of isopropyl alcohol extracts was measured on a spectrophotometer. Relative cell viability was calculated for each tissue as % of the mean viability of the negative control tissues. Under the above-described experimental design, average viability of tissues treated by test substance water extract was 99.0% and by test substance olive oil extract 103.0%, i.e. viability was >50% in both cases. The effect of the test substance 114 was negative in EpiDerm™ model (tissues were not damaged). According to the classification criteria given in chapter 4.5, the test substance is considered to have no category in regard to skin irritation.

[5] = Calcein AM cytotoxicity, NIH-3T3; settings: mouse, NIH-3T3 fibroblasts
Description: (§1) One of the parameters used, as the basis for cytotoxicity assays, is the metabolic activity of viable cells. For example, a microtiter assay, which uses the Calcein AM, is now widely used to quantitate cell proliferation and cytotoxicity. […] Because only metabolically active cells cleave Calcein AM, these assays detect viable cells exclusively. The quantity of reduced Calcein AM corresponds to the number of vital cells in the culture.
(§2) Mouse fibroblasts NIH3T3; mouse immortalized bone marrow macrophages B2.4 and B10A.4, and BJ (human foreskin fibroblasts) were used for routine screening of compounds. The cells were maintained in Nunc/Corning 80 cm^2 plastic tissue culture flasks and cultured in cell culture medium (DMEM with 5 g/l glucose, 2 mM glutamine, 100 U/ml penicillin, 100 μg/ml streptomycin, 10% fetal calf serum and sodium bicarbonate).
(§3) The cell suspensions that were prepared and diluted according to the particular cell type and the expected target cell density (2.500-30.000 cells per well based on cell growth characteristics) were added by pipette (80 μl) into 96/well microtiter plates. Inoculates were allowed a pre-incubation period of 24 hours at 37° C. and 5% CO2 for stabilisation. Four-fold dilutions of the intended test concentration were added at time zero in 20 μl aliquots to the microtiter plate wells. Usually, the compound tested was evaluated at six 4-fold dilutions. […] All compound concentrations were examined in duplicates. Incubations of cells with the tested compounds lasted for 72 hours at 37° C., in 5% CO2 atmosphere and 100% humidity. At the end of the incubation period, the cells were assayed by using Calcein AM. Ten microliters of the stock solution were pipetted into each well and incubated for 1 hour. Fluorescence (FD) was measured with the Labsystem FIA Reader Fluoroscan Ascent (UK).

[6] = Radical scavenging activity determined by ORAC; settings: relative to trolox; Mean ± SD (n = 3)
Experimental: The ability of compounds to scavenge free radicals in vitro was determined by Oxygen Radical Absorbance Capacity (ORAC) method. In brief, fluorescein (100 μl, […]) and 25 μl of compound solution were added into each working well in a 96-well microplate preincubated at 37° C. Thereafter, 25 μL of 250 mM AAPH was quickly added, microplate was shaken for 5 s and the fluorescence (Ex. 485 nm, Em. 510 nm) was read every 3 min over 90 min by using microplate reader Infinite 200 (TECAN, Switzerland). The net area under the curve was used to express antioxidant activity relative to trolox which was used as a standard.

[7] = Calcein AM cytotoxicity, BJ; settings: human, BJ foreskin fibroblasts
Description: as §1, §2, §3

[8] = system: Wistar rats; test: Acute dermal toxicity; assay type: in vivo
Experimental: The test substance 114 was tested for acute dermal toxicity using Wistar rats. Testing was performed according to ČSN EN ISO 10993-11: Biologické hodnoceni zdravotnických prostředků—část 11: Zkoušky na systémovou toxicitu and according to OECD Test Guideline No. 402 Acute Dermal Toxicity Adopted 24 Feb. 1987. The study was performed as limit test: two groups of animals—5 males and 5 females at the dose of 1000 mg/kg of body weight. The pre-test was performed with 1 male and 1 female from each group. After the pilot experiment, the other animals of the group were dosed. The test substance in delivered form was applied on the shaved skin of the test animals for 24 hours. The test animals were observed 14 days after exposure to the test substance, afterwards they were sacrificed, and the necropsy for macroscopic examination of the organs was performed. […] The test substance toxicity was evaluated on the basis of mortality, body weight changes, and clinical signs of toxicity during the observation period and necropsy findings at the end of the study. According to the results of study, the value of Maximum Tolerated Dose (dermal) of the test substance for rats of both sexes is higher than 1000 mg/kg of body weight.

[9] = 60 minutes exposition, 42 hours post incubation, MTT, % of negative control

With `CN(C)c1nc(NCc2ccco2)c2ncn(C3CCCCO3)c2n1` (stereo not shown) [Compound 114, 2-(Dimethylamino)-6-furfurylamino-9-(tetrahydro-2H-pyran-2-yl)-9H-purine] the “Primary Irritation Index” value ([1]; New Zealand Albino, 4 h) was 0, the “changes in animal weights” value [1] was “No changes in animal weights” and the “clinical signs of systemic intoxication” value [1] was “No clinical signs of systemic intoxication”. The erythema and oedema [1] was “No erythema and oedema”, the skin irritation [1] was “No skin irritation” and the “concentration at which intracellular ROS production is significantly decreased” value [2] was at least 10 µM. The MTD [3] was over 100 mg/kg, the skin irritation classification [4] was “no category” and the “average viability of tissues, olive oil extract” value [4, 9] was 103.0%. For the same compound, the “average viability of tissues, water extract” value [4, 9] was 99.0%, the “effect in EpiDerm model” value ([4]; water and olive oil extracts) was “negative” and the IC50 at 72 h [5] was over 167 µM. For the same compound, the “ORAC (compound/trolox)” value [6] was 0.211 ± 0.018, the IC50 at 72 h [7] was over 167 µM and the mortality ([8]; 1000 mg/kg of body weight dermal, 14 days observation) was “did not cause death of animals”. The “Maximum Tolerated Dose (dermal)” value ([8]; 24 hours on shaved skin, rats of both sexes) was “higher than 1000 mg/kg of body weight”.
